Test results from US20090214500A1, “PREVENTION AND TREATMENT OF OSTEOCHONDROSIS IN ANIMALS AND HUMANS” (U.S. Borax Inc., priority 2005, published 2009).
“Also recorded” adds a separate entry of the source.

Key:
[1] = tested on: sows; test: Observation in sows fed 50 ppm supplemental boron in late gestation and early lactation; conditions: sow diets with 50 ppm supplemental boron
Protocol: (§2) Sows were fed a standard corn-soy diet. Half of the sows received an oral administration of a boron supplement to provide 1 mg boron per kg body weight.

[2] = type: in vivo; conditions: one pig of about 85 pounds kept on boron 50 ppm plus ascorbate 125 ppm
Protocol: (§1) Boron was added to the diet of sows at 1 mg/kg body weight as boric acid. […] Among a group of 95 piglets the birth to weaning mortality was 2 piglets. The usual mortality for this farm was about 5 to 7%. These piglets remained on boron 50 ppm plus ascorbate 125 ppm. One pig was euthanized and examined at a weight of about 85 pounds. […] All bones of the appendicular skeleton were sectioned on the band saw.

[3] = tested on: sows; test: Preliminary pilot study, oral boron supplement to gestating and lactating sows; conditions: sows given oral 1 mg boron per kg body weight; first 600 pigs, preliminary analysis
Protocol: as §2

[4] = tested on: crossbred pigs
[5] = tested on: sows; test: Sow and litter trial in a commercial swine operation during a PRRSV outbreak; type: in vivo, pig; conditions: sows given oral 1 mg boron per pound BW per day
Protocol: To test the effect of boron on sows and their litters, a trial was established in a large commercial swine operation during an outbreak of porcine viral reproductive and respiratory disease (PRRSV). Boron was administered orally to a group of 51 sows individually housed in crates at the rate of 1 mg boron per pound BW per day beginning 1 week prior to farrowing and continuing until the piglets were weaned at 14 days of age. […] Boron treatment was supplied as a single daily dosing and was discontinued at weaning. All sows were fed a standard commercial sow diet.

[6] = tested on: Duroc and Yorkshire pigs; test: Boron supplementation and OC-associated lameness in swine (Example 1); type: in vivo, pig
Protocol: The basal diet consisted of commercial corn-soy diet containing 10 ppm boron.
Test diet group B was fed a basal diet plus 25 mg/kg boron as sodium borate decahydrate (borax). Test diet group A was fed a basal diet plus 25 mg/kg boron as sodium borate decahydrate (borax) and 250 mg/kg ascorbic acid.
Pigs were weighed at the beginning of the study, 4 weeks later and every 3 weeks until the end of the study. Animals were scored for soundness on a 5-point scale at each weighing. (Five-point scale: 1=no soundness defects; 2=minor soundness issues but still sound enough for retention as breeding animal; 3=not sound enough for retention for breeding but still marketable; 4=unsound, likely to be rejected at slaughter; 5=severely lame, requiring euthanasia for humane reasons.) Grading was done by the caretaker and the investigator at all weighing times. An experienced independent treatment-blind rater also evaluated the soundness of each animal and the ratings he provided were compared with the ratings of the caretaker and investigator by use of Cohen's Kappa test.
The animals were housed in a modern curtain sided barn with deep straw bedding, with ad libitum access to feed and water. Waterers and feeders were on a concrete pad but the remainder of the flooring was deep straw over a ground limestone and sand base. Floor space allowances exceeded the recommendations of the Guide for the Care and Use of Agricultural Animals in Agricultural Research and Teaching, First Revised Edition, 1999. Federation of Animal Science Societies. Savoy, Ill.
The basal diet (no boron supplemented) was analysed and found to contain boron at the rate of 10 ppm which is typical for a corn-soybean meal based diet.
At the end of the study the pigs were transported to a laboratory where they were euthanized and necropsied. […]
At necropsy, samples of liver, heart, kidney, fat, skeletal muscle, proximal tibia, blood, and the rostral snout were retained and frozen at −40° C. prior to chemical analysis. All joints of the axial skeleton were evaluated for the presence of gross lesions of osteochondrosis and graded on a 5 point scale. […]
Mean joint lesion scores, growth rate and soundness scores by treatment and by factors boron and ascorbate were compared using an analysis of variance and t-test as appropriate. Soundness scores were dichotomised into binary categorical variables for lameness (soundness score>2) and for absence of defects (soundness<2), and the binary variables analysed by chi-square and logistic regression.
Tissue specimens stained with H&E were examined microscopically for the presence of lesions of osteochondrosis. […] Each tissue section was scored by a treatment-blind board-certified pathologist.

[7] = tested on: pigs; test: 3-NPB with or without supplemental boron in pigs, lameness and joint lesions; conditions: for Clinical Lameness Score Normal, count of pigs / Clinical Lameness Score Visible Lameness, count of pigs: 5 pigs
Protocol: The pigs were evaluated for lameness daily and euthanized on day 13 and the joints and other organs were examined.

[8] = tested on: sows; type: in vivo
Protocol: as §1

[9] = tested on: pigs; conditions: 50 ppm boron as boric acid
Source text: An Iowa farm treated a group of about 100 pigs with 50 ppm boron as boric acid.

[10] = 50 ppm added B in diet, 28 days, 12 pens
[11] = supplemental boron 50 mg/kg vs 0, p<0.05
[12] = boron supplementation 50 ppm together with 3-NPB 1 gram daily × 10 days
[13] = boron supplementation 50 ppm, 3-NPB none

## [B] [Boron]
[1]
  piglet quality as assessed by uniformity, growth, and general thrift: improved
  pre-weaning piglet mortality: reduced
[2]
  bone mineralization at necropsy: excellent mineralization
  joint abnormalities at necropsy: No abnormalities were observed in any of the joints
[3]
  piglet weight at 12 days of age: 8.5 pounds
  pre-weaning mortality: 16%
[4]; [10]
  Average daily gain (grams per day): 549 grams per day
  Avg. daily feed intake: 1270
  Feed Conversion Ratio (feed/gain): 2.32 feed/gain
[4]; boron added to the diet, compared with no added boron
  reduction of phosphorus excretion per unit of production: 15%
[4]; [11]
  effect on average daily gain: increased
  effect on fecal phosphorus excretion per unit of growth: reduced
  effect on feed conversion ratio: improved
  effect on phosphorus digestibility: improved
[4]; supplemental boron 50 mg/kg vs 0, p>0.20
  effect on daily feed intake: not significantly modified
[5]
  effect on litter size at birth: no effects
  effect on piglet birth weight: no effects
  likelihood to conceive relative to control sows: 1.2 times
  return to estrus, average days quicker than control sows: 1.6 days
[5]; from 1 week prior to farrowing until weaning
  piglet mortality: 15.2%
[5]; from 1 week prior to farrowing until weaning at 14 days
  piglet weight at 12 days of age: 9.01 lbs
[6]; basal diet plus 25 mg/kg boron as sodium borate decahydrate (borax), with or without 250 mg/kg ascorbic acid
  joint health compared with basal diet with no supplemental boron (FIG. 1): healthier joints
[6]; growing swine, 25 mg/kg boron as borax in feed
  incidence of osteochondrosis-associated lameness: effective in reduction of the incidence of osteochondrosis-associated lameness
[6]; pigs, supplemental boron 25 ppm to 50 ppm in feed, FIGS. 1, 3 and 4
  occurrence of osteochondrosis (OC): reduction in the occurrence of osteochondrosis; also recorded: significant reduction in the occurrence of OC
[6]; rapidly growing swine, 25 mg/kg boron as borax in feed, 25 mg/kg
  soundness scores / lameness associated with early rapid growth (FIG. 3): useful in cartilage protection and prevention of lameness; also recorded: reduction of soundness scores associated with early growth
[7]; [12]
  Clinical Lameness Score Normal, count of pigs: 4
  Clinical Lameness Score Visible Lameness, count of pigs: 1
[7]; [13]
  Clinical Lameness Score Normal, count of pigs: 5
  Clinical Lameness Score Visible Lameness, count of pigs: 0
[7]; chi-square analysis
  effect of supplemental boron in preventing the lameness induced by 3-NPB: significant effect; also recorded: could be prevented
[7]; supplemental boron 50 ppm when 3-NPB was provided
  pigs that developed lameness: one in 5
[7]; supplemental boron, no 3-NPB
  prevalence and severity of osteochondrosis lesions in shoulder, stifle, hock and elbow joints: lowest prevalence of lesions and the lowest severity

## OB(O)O [boric acid]
[8]; pig, in vivo
  birth to weaning mortality: 2 piglets
[8]; sows, boron 1 mg/kg body weight as boric acid in diet
  outcome of three noticeably and seriously lame sows: became perfectly sound
[9]
  growth rate: excellent growth rate
[9]; estimated previous rate about 25 to 30%
  lameness/unsoundness rate in the test group: zero
[9]; about 100 pigs
  pigs developing signs of lameness or unsoundness: None
